Measured values as given in publication PMC11009276, “Design, synthesis, biological assessment and molecular modeling studies of novel imidazothiazole-thiazolidinone hybrids as potential anticancer and anti-inflammatory agents” (Scientific Reports, 2024).
Like-named read-outs stand apart in the source and are kept apart here.

Assays:
[1] = target: Bovine serum albumin (BSA) (Bos taurus, UniProt P02769); test: BSA (protein albumin) denaturation inhibition assay; settings: for BSA denaturation inhibition assay Mean absorbance ± SEM: 100 μg/mL, 660 nm
Description: All the synthesized compounds were evaluated for anti-inflammatory activity by the inhibition of the albumin denaturation technique. […] All the test solutions (1 mL, 100 μg/mL) were then mixed with 1 mL of albumin solution (1%) and phosphate buffer saline and then incubated for around 15 min at 27 ± 1 °C. Further, the denaturation of protein was induced by keeping the reaction mixture on the water bath for 10 min and maintaining the temperature at 60 °C. Once the solution gets cooled, the turbidity was measured using UV–Visible spectrophotometer at 660 nm.

[2] = system: MCF7 human breast cancer cell line; test: MTT cytotoxicity assay, MCF7; settings: MCF7, 72 h, read-out: IC50 (µM) (Mean ± SD) MCF7
Description: (§1) All the synthesized imidazothiazole derivatives linked with thiazolidinone moiety (4a-g and 5a-d, Fig. 4) were evaluated for their in- vitro anticancer activities against three selected human cancer cell lines namely non-small lung (A549), breast (MCF7) and colorectal (HCT116) and one normal human embryonic kidney cell line (HEK293) using the 3‐(4,5‐Dimethylthiazol‐2‐yl)-2,5‐Diphenyltetrazolium Bromide (MTT) assay method. […] Compounds were tested against selected cancer cell lines namely A549 (Lung), MCF-7(Breast) HCT116 (Colon), normal human embryonic kidney cell line (HEK293) and procured from National Centre for Cell Science Complex (NCCS) Pune University, India. Into a 96 well plate, cells were seeded into each well (3 × 10^3 cells/ per well), the plate were incubated for 24 h, after that the culture medium was discarded and replaced with fresh medium along with our newly synthesized test compounds in different concentration (10, 20, 40 and 80 µM) followed by incubation for 72 h. […] Finally, each well is treated with DMSO (100 µL) and swirled to dissolve the dark crystals of formazan. ELISA reader was used to measure the absorbance at 570 nm. The experiment was repeated three times; Graph pad prism and excel are used to calculate the IC50 values[51].

A549 cells [3] = test: DAPI nuclear staining; assay type: cell-based, human; settings: IC50 dose, 48 h
Description: A549 cells were treated with compound 4a, 4b, 4c and morphological changes were observed after nuclear staining with 4′,6‐diamidino‐2‐phenylindole (DAPI).
Cellular nuclear morphology was evaluated by fluorescence microscopy following DAPI staining. […] After incubation, the cells were again gently washed with PBS and the coverslips were mounted on sterile slides using a DPX mounting medium. The prepared slides were observed under a fluorescence microscope (Nikon) having a blue or cyan filter at × 40 magnification.

A549 cells [4] = test: Wound healing (migration) assay; assay type: cell-based, human; settings: 30 µM, 0 and 24 h, vs control
Description: Migration of cells is directly associated with tumor progression and metastasis of cancerous cells. […] An artificial scratch or wound was created on the monolayer of A549 cells using a 200µL sterile pipette tip. […] The images of cells to fill up the artificial scratch or wounds were photographed at 0 and 24 h after the treatment and the responses were visualized using phase contrast microscopy.
Wound healing was performed with A549 cells. On six-well plates, cells were seeded at a density of 5 × 10^5 cells per well and cultured as a confluent monolayer for 24 h. A […] pipette sterile tip was used to make an artificial scratch or wound on the monolayer of A549 cells after a 24-h period, and well plates were then washed with PBS to eliminate any non-adherent cells. The therapy was then administered at the appropriate concentrations of chemicals 4c and 4b. A Nikon phase contrast microscope was used to take pictures of the movement of cells over the scratched region at 0 and 24 h in two or three randomly chosen fields.

[5] = system: gastric mucosa tissue of rats; test: Lipid peroxidation in gastric mucosa; assay type: in vivo, rat; settings: oral 0.0942 mmol/kg
Description: The compounds screened for ulcerogenic potential were also analysed for lipid peroxidation. Lipid peroxidation is measured as nmolMDA/100 mg of gastric mucosa tissue. […] Thus, it was concluded that protection of gastric mucosa might be related to the inhibition of lipid peroxidation.
Lipid peroxidation in the gastric mucosa was determined using the reported method by Ohkawa H. et al.[61]. The gastric mucosa of the glandular area was scraped off using glass slides after the stomach had been examined for ulcers. Gastric mucosa was weighed (100 mg) and homogenised in 1.8 cm^3 of ice-cold solution of KCl (1.15%). The homogenate is further added with 0.2 cm^3 of 8.1% sodium dodecyl sulphate (SDS), 1.5 cm^3 of acetate buffer, and 1.5 cm^3 of 0.8% thiobarbituric acid. After adding all buffers, the mixture was kept for incubation for 60 min over water bath, maintaining the temperature of the water bath at 95 °C. Later, the mixture was allowed to cool and then extracted with a freshly prepared mixture of n-butanol and pyridine (15:1 v/v), the organic layer obtained was centrifuged at 3000 rpm for about 10 min. The organic layer was separated out and visualised on UV–visible spectrophotometer. Concentration was measured using the following formula: Concentration=Absorbance×volume×109÷1.56×10^5×1000
Results obtained were expressed as nmol MDA/100 mg tissue and extinction coefficient (1.56 × 10^5) cm^-1 M^-1.

EGFR kinase = EGFR kinase (Homo sapiens, UniProt P00533); test: In vitro EGFR kinase inhibitory assay (ELISA, phospho-EGFR in A549 cell lysates)
Description: For all the synthesized compounds, the overall methodology of a spectrophotometric assay for the inhibition of EGFR tyrosine kinase activity was evaluated in human A549 cells, which expressed high levels of EGFR protein. […] Cells were then washed with cold PBS, lysed in 0.2 ml/well of HNTG buffer (50 mM HEPES [(4‐(2‐hydroxyethyl)‐piperazineethanesulfonic acid; pH 7.5], 150 mM NaCl, 1.5 mM MgCl, 10% glycerol, 1% Triton X‐100, 0.5 mM sodium fluoride, 2 g/ml aprotinin, 2 g/ml pepstatin A, 1 mM sodium orthovanadate, 2 g/ml leupeptin, 1 mM phenyl methyl sulfonyl fluoride) for 10 min, and the lysates were collected as the supernatant fraction after a 12‐min centrifugation at 15,000 g. The specific EGFR concentration was measured by ELISA assay. Briefly, the wells of ELISA plates were coated with supernatant fraction and incubated at 4 °C overnight After washing three times with buffer (20 mM PBS, pH 7.2 containing 0.05% Tween‐20), the wells were blocked with 1% BSA for 2–3 h at room temperature. Further, the plate was washed and then mouse serum at 1,000‐fold dilution was added, followed by washing and incubation with phospho‐EGFR antibody (Invitrogen) at 4 °C overnight. The wells were washed and incubated with substrate solution (o‐phenylenediamine dihydrochloride), for 30 min, and the absorbance read on an ELISA plate reader at 490 nm[52]. %Inhibition=mean OD of untreated group-mean OD of treated group/mean OD of untreated group)×100.

[6] = system: A549 (Lung) cancer cell line; test: MTT cytotoxicity assay, A549; settings: Homo sapiens, A549, 72 h, read-out: IC50 (µM) (Mean ± SD) A549
Description: as §1

[7] = system: carrageenan-induced rat hind paw edema; test: Carrageenan-induced rat paw edema inhibition assay; assay type: in vivo; settings: after 4 h; for % inhibition (paw edema) / Increase in Paw volume SEM: oral 0.0314 mmol/kg; for Increase in Paw volume SEM: n = 6; for Activity relative to standard drug: relative to diclofenac sodium
Description: The anti-inflammatory efficacy of the newly synthesised compounds was assessed using a carrageenan-induced rat hind paw edema technique The animals were divided into groups of six at random, fasted for 24 h before to the experiment, and given free access to water. 0.5% CMC solution was given to the control group only. […] One hour after the administration of the test compounds and the reference drug, 0.1 mL of a 1% carrageenan solution in saline was subcutaneously injected into the subplantar area of the right hind paw of each rat. The right hind paw volume was measured using a Digital Plethysmometer PLM-01 Plus (Orchid Scientifics and Innovatives India Pvt. Ltd., Mumbai, India) at 3 and 4 h after carrageenan therapy. The following calculation was used to compute the percent edema inhibition from the mean effect in the treated and control animals: Percent edema inhibition=Vc-Vt/Vc×100 where Vc denotes the mean increase in paw volume in the control group of rats and Vt denotes the mean increase in paw volume in rats treated with test chemicals. After a 15-day washout period, the same group of rats utilised for the anti-inflammatory activity were employed for the ulcerogenic activity.

A549 cells [8] = test: AO/EB dual staining apoptosis assay; assay type: cell-based, human; settings: vs control
Description: An early and late apoptotic along with necrotic cells were also observed in active compounds (4a-c) treated A549 cells (Fig. 9b).
A549 cell lines were cultured in six-well plates at 4 × 10^4 cells/well and then these cells were treated with 1.56 and 12.5 μg mL^−1 of […] for 48 h respectively. Further, Cells were harvested and stained with AO-EtBr dye mix (1:1 v/v from 100 μg mL^−1 in PBS) and studied using a fluorescent microscope.

[9] = system: HCT116 human colorectal cancer cell line; test: MTT cytotoxicity assay, HCT116; settings: HCT-116, 72 h, read-out: IC50 (µM) (Mean ± SD) HCT116
Description: as §1

[10] = read-out: BSA denaturation inhibition assay % inhibition of denaturation

Bovine serum albumin (BSA), sequence (P02769 25-607): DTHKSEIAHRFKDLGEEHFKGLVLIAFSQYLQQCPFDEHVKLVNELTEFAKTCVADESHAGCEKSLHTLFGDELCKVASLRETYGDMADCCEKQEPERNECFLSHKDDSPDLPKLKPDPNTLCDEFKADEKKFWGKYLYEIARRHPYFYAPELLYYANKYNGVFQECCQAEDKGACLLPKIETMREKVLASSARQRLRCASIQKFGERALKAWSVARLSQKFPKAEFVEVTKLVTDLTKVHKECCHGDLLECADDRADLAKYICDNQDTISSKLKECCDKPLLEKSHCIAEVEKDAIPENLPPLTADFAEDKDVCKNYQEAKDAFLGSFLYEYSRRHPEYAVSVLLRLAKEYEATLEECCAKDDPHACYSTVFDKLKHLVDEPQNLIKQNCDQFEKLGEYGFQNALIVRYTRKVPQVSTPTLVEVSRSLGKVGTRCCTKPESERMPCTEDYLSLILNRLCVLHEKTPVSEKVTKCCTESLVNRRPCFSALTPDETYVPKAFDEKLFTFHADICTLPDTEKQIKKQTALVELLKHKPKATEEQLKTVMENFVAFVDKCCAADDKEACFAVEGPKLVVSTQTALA
EGFR kinase, sequence (P00533 25-1210): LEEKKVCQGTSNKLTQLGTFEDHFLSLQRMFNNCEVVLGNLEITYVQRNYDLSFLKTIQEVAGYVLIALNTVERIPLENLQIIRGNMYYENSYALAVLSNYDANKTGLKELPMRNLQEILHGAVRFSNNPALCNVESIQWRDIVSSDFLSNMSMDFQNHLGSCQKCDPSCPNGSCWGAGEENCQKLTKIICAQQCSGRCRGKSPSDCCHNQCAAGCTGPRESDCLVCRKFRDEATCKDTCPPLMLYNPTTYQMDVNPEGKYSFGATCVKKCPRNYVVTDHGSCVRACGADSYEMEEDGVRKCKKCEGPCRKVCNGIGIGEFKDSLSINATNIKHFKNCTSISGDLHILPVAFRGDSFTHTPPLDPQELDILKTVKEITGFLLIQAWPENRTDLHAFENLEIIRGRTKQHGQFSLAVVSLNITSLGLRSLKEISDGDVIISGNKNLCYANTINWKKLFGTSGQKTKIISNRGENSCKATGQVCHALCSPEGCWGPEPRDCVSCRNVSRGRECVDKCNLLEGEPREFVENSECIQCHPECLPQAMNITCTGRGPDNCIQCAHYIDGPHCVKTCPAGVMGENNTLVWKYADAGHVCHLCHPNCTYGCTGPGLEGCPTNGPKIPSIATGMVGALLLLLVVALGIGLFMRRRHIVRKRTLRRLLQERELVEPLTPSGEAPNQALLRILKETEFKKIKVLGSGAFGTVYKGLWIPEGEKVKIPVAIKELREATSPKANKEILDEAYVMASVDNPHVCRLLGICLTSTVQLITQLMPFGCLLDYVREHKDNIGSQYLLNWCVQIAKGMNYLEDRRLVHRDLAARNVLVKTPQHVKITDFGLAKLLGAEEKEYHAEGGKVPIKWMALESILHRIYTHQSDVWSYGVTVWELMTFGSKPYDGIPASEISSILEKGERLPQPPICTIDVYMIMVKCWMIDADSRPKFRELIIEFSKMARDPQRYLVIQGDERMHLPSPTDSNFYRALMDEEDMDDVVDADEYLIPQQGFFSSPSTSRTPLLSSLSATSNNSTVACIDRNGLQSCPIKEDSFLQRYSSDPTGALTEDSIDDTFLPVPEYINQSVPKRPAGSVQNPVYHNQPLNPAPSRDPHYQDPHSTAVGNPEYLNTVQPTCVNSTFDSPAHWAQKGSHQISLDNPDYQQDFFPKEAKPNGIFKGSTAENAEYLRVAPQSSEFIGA

In the case of CC1SC(c2c(-c3ccccc3)nc3sccn23)N(c2ccc(F)cc2)C1=O (centres unmarked) [Compound 4a, 3-(4-Fluorophenyl)-5-methyl-2-(6-phenylimidazo[2,1-b]thiazol-5-yl) thiazolidin-4-one], the inhibition at 100 µg/mL ([1]; read-out: BSA denaturation inhibition assay % inhibition of denaturation, 100 μg/mL) is reported as 82.1%, the IC50 [2] is reported as 22.8 ± 5.5 µM and the “Nuclear morphological change (DAPI)” value (A549 cells [3]) is reported as “chromatin condensation and nuclear fragmentation and margination of nucleus”. The “Migration of A549 cells (wound healing)” value (A549 cells [4]) was “significant suppression in the migration of A549 cells”, the Lipid peroxidation [5] was 5.98 ± 0.114 Nmol MDA/100 mg tissue and the IC50 (EGFR kinase) was 28.6 ± 1.96 µM. The IC50 [6] was 22.5 ± 2.04 µM, the “% inhibition (paw edema)” value [7] was 79.45% and the “Increase in Paw volume SEM” value [7] was 0.141 ± 0.025. For the same compound, the “Activity relative to standard drug” value [7] was 98.91, the “Apoptotic cells (AO/EB dual staining)” value (A549 cells [8]) was “number of apoptotic cells enhanced” and the IC50 [9] was 23.7 ± 0.85 µM.

With CC1SC(c2c(-c3ccccc3)nc3sccn23)N(c2ccc(Cl)cc2)C1=O (centres unmarked) [Compound 4b, 3-(4-Chlorophenyl)-5-methyl-2-(6-phenylimidazo[2,1-b]thiazol-5-yl) thiazolidin-4-one] the “BSA denaturation inhibition assay Mean absorbance ± SEM” value [1] was 0.329 ± 0.001, the inhibition at 100 µg/mL [1, 10] was 84.9% and the IC50 [2] was 29.2 ± 7.1 µM. The “Nuclear morphological change (DAPI)” value (A549 cells [3]) was “chromatin condensation and nuclear fragmentation and margination of nucleus”, the “Migration of A549 cells (wound healing)” value (A549 cells [4]) was “significant suppression in the migration of A549 cells” and the Lipid peroxidation [5] was 4.12 ± 0.159 Nmol MDA/100 mg tissue. For the same compound, the IC50 (EGFR kinase) was 24.3 ± 1.73 µM, the IC50 [6] was 21.1 ± 1.04 µM and the “% inhibition (paw edema)” value [7] was 81.34%. The “Increase in Paw volume SEM” value [7] was 0.128 ± 0.018, the “Activity relative to standard drug” value [7] was 101.27 and the “Apoptotic cells (AO/EB dual staining)” value (A549 cells [8]) was “number of apoptotic cells enhanced”. For the same compound, the IC50 [9] was 45 ± 1.02 µM.

CC1SC(c2c(-c3ccccc3)nc3sccn23)N(c2ccc(Br)cc2)C1=O (centres unmarked) [Compound 4c, 3-(4-Bromophenyl)-5-methyl-2-(6-phenylimidazo[2,1-b]thiazol-5-yl) thiazolidin-4-one] was tested, and the “BSA denaturation inhibition assay Mean absorbance ± SEM” value [1] was 0.332 ± 0.006, the inhibition at 100 µg/mL [1, 10] was 83.6% and the IC50 [2] was 18.7 ± 0.88 µM. For the same compound, the “Nuclear morphological change (DAPI)” value (A549 cells [3]) was “chromatin condensation and nuclear fragmentation and margination of nucleus”, the “Migration of A549 cells (wound healing)” value (A549 cells [4]) was “significant suppression in the migration of A549 cells” and the Lipid peroxidation [5] was 5.37 ± 0.060 Nmol MDA/100 mg tissue. For the same compound, the IC50 (EGFR kinase) was 18.4 ± 1.25 µM, the IC50 [6] was 10.7 ± 0.4 µM and the “% inhibition (paw edema)” value [7] was 80.17%. The “Increase in Paw volume SEM” value [7] was 0.136 ± 0.014, the “Activity relative to standard drug” value [7] was 99.82 and the “Apoptotic cells (AO/EB dual staining)” value (A549 cells [8]) was “number of apoptotic cells enhanced”. It also gave an IC50 [9] of 23.2 ± 1.89 µM.
